Test results reported in PubChem BioAssay (NCI).
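Grown in 96-well plates, cells were treated for 48 hours with each compound at five concentrations. Insufficient inhibition: endpoint recorded as highest concentration tested. TGI marks complete inhibition of growth.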

Key:
Test in all cases: NCI anticancer screen, dose series, 48 h
RXF 393 renal = test system: RXF 393 renal
BT-549 breast = test system: BT-549 breast
IGROV1 ovarian = test system: IGROV1 ovarian
SF-268 CNS = test system: SF-268 CNS
TK-10 renal = test system: TK-10 renal
CCRF-CEM leukemia = test system: CCRF-CEM leukemia
RPMI-8226 leukemia = test system: RPMI-8226 leukemia
HCC-2998 colon = test system: HCC-2998 colon
SK-MEL-28 melanoma = test system: SK-MEL-28 melanoma
OVCAR-3 ovarian = test system: OVCAR-3 ovarian

SMILES	TGI (RXF 393 renal) [µM]	TGI (BT-549 breast) [µM]	TGI (IGROV1 ovarian) [µM]	TGI (SF-268 CNS) [µM]	TGI (TK-10 renal) [µM]	TGI (CCRF-CEM leukemia) [µM]	TGI (RPMI-8226 leukemia) [µM]	TGI (HCC-2998 colon) [µM]	TGI (SK-MEL-28 melanoma) [µM]	TGI (OVCAR-3 ovarian) [µM]
NC(CCC(=O)O)(CCC(=O)O)CCC(=O)O	> 100	> 100	> 100	> 100	> 100	> 100	> 100	–	–	–
COc1ccc(-c2cc(=O)c3cc4c(cc3[nH]2)OCO4)cc1	> 100	–	> 100	> 100	> 100	> 100	> 100	> 100	> 100	> 100
COc1cccc2nc3cc(C)c(C)cc3nc12	> 100	–	> 100	> 100	> 100	> 100	–	> 100	> 100	> 100
Cc1ccc(-c2c(C#N)c(N)nc3c2CCS(=O)(=O)c2ccccc2-3)cc1	–	> 100	> 100	> 100	> 100	–	> 100	> 100	> 100	–
CC(=O)O[C@H]1CCn2c3c(c(C)c21)C(=O)C(N1CC1)=C(C)C3=O	–	> 10	> 10	> 10	> 10	> 10	> 10	> 10	–	> 10
Nc1ncnc2c1cnn2Cc1cn(COCC(O)CO)nn1 (stereo unspecified)	–	> 100	> 100	34.9	> 100	> 100	–	> 100	> 100	> 100
NNCCc1n[nH]c(=O)n1N	> 100	> 100	> 100	> 100	–	> 100	> 100	> 100	> 100	> 100
C=CCCCC1CCCNC1=S (stereo unspecified)	> 100	> 100	> 100	> 100	> 100	–	> 100	> 100	> 100	> 100
O=C1CCCCC/C1=C\c1ccc(Cl)cc1	–	> 100	> 100	55.5	> 100	50.3	82.2	96.2	> 100	> 100
CC(C)(C)[Si](C)(C)OCCOCn1cc(F)c(=O)[nH]c1=O	> 100	> 100	> 100	> 100	> 100	> 100	> 100	–	–	> 100
CC(C)CC(NC(=O)C(CCI)Cc1ccccc1)C(=O)Nc1ccccc1 (stereo unspecified)	> 100	66.5	> 100	–	> 100	> 100	> 100	> 100	> 100	> 100
Cc1ccc2c(c1)-c1c(C#N)c(N)nc(-c3ccccc3)c1CCS2(=O)=O	–	> 43.4	> 51.1	> 100	> 100	> 100	32.9	> 100	> 100	> 100
CC(C)C12C=CC(C)(CC1)n1c(=O)c3cc4ccccc4cc3c(=O)n12 (stereo unspecified)	> 100	–	> 100	> 100	94	> 100	> 100	> 100	> 100	> 100
CC(C)C1COC(c2cccc(C3=N[C@@H](C(C)C)CO3)n2)=N1 (stereo partly specified)	> 100	–	> 100	> 100	> 100	> 100	> 100	> 100	> 100	> 100
CC12c3c4cc(Br)cc3Oc3cc(Br)cc(c31)Oc1cc(Br)cc(c12)O4	–	52.7	86.6	28.2	> 100	–	> 100	> 100	> 100	28.2
O=c1c2cn[nH]c2nc2scc(-c3ccc(Cl)cc3)n12	> 100	–	> 100	> 100	> 100	> 100	> 100	> 100	> 100	> 100
CC(C)CCc1n[nH]c(=O)n1/N=C\c1ccccc1	> 100	–	> 100	> 100	> 100	> 100	–	> 100	> 100	> 100
Clc1nc(NCCc2ccccc2)c2ncn(-c3ccccc3)c2n1	> 100	60	> 100	> 100	71.2	–	47.3	45.5	94.1	82.2
CCN(CC)C(=S)N=Nc1c(O)[nH]c2ccccc12	7.15	–	2.42	> 100	5.07	5.75	4.07	–	> 100	2.12
CCC(=O)N(O)C(C)(C)C	> 100	–	> 100	> 100	> 100	> 100	> 100	> 100	> 100	> 100
CC1=N[C@](C)(C2CC3C=CC2C3=O)COC1=O (stereo partly specified)	> 100	> 100	> 100	> 100	> 100	> 100	–	> 100	> 100	> 100
O=S(=O)(O)c1ccc2c(N=Nc3ccc(F)cc3)c(O)c(S(=O)(=O)O)cc2c1	> 100	> 100	> 100	> 100	> 100	> 100	> 100	–	> 100	> 100
COc1cc2c(cc1OC)C(C)N(C)c1c-2c(OC(C)=O)cc2cc(OC)c(OC)cc12 (stereo unspecified)	31.1	47.1	–	> 100	> 100	> 100	> 59	> 60.1	> 60.1	> 100
